Measurements reported in patent US11701332B2, “Methods and compositions for treating female sexual interest and arousal disorder” (priority 2020, dated 2023).

How the values were obtained:
[1] = in vivo; cited from earlier work
libido [2] = details: after injection; cited from earlier work
[3] = target: peripheral androgen receptors (AR) (Homo sapiens, UniProt P10275); details: 450 mg darolutamide twice daily, person
Procedure: A person diagnosed with FSIAD is administered a 30 mg testosterone enanthate injection weekly, and a dose of 450 mg of darolutamide twice daily to achieve partial (90%) AR blockage peripherally, rather than total (100%) AR blockage.

[4] = in vivo; cited from earlier work; remark: listed apart in the source
[5] = cited from earlier work
libido [6] = details: sublingual testosterone, short testosterone spike; cited from earlier work
libido [7] = details: biological women receiving testosterone as part of gender transition therapy; cited from earlier work

Sequence of peripheral androgen receptors (AR) (P10275 whole entry): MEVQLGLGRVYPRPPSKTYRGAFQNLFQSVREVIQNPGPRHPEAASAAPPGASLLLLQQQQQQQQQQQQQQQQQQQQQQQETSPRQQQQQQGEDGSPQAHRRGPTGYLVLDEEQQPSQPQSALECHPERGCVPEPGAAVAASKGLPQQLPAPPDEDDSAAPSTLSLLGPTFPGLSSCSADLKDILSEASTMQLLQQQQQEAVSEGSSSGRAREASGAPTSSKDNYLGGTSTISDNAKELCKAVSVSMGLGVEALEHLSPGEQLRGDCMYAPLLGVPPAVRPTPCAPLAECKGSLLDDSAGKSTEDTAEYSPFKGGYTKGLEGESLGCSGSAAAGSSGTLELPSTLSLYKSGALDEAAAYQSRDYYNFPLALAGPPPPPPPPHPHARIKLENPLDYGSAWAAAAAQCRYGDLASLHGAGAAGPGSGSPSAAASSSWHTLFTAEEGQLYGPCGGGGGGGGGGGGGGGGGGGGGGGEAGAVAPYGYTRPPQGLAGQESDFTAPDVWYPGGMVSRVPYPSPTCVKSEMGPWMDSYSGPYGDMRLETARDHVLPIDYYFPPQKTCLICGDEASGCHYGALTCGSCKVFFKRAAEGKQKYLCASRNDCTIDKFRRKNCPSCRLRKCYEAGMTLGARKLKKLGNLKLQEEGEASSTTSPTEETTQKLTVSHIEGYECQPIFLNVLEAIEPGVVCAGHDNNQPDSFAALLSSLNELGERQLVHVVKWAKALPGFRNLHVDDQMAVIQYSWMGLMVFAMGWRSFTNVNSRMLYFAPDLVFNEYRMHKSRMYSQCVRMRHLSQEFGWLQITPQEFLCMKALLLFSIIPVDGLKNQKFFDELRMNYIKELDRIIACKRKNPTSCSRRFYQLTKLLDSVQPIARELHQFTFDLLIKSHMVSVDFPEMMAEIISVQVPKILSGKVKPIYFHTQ

Compound: CC(O)(CS(=O)(=O)c1ccc(F)cc1)C(=O)Nc1ccc(C#N)c(C(F)(F)F)c1 (stereo not drawn) [bicalutamide]
- crossing of the blood-brain barrier [1]: do not cross the blood-brain barrier

Compound: CCCC[C@H](NC(C)=O)C(=O)N[C@H]1CC(=O)NCCCC[C@@H](C(=O)O)NC(=O)[C@H](Cc2c[nH]c3ccccc23)NC(=O)[C@H](CCCN=C(N)N)NC(=O)[C@@H](Cc2ccccc2)NC(=O)[C@H](Cc2cnc[nH]2)NC1=O [bremelanotide]
- libido boost (libido [2]): temporary libido boost shortly after injection

Compound: CC(O)c1cc(C(=O)N[C@@H](C)Cn2ccc(-c3ccc(C#N)c(Cl)c3)n2)[nH]n1 (stereo partly drawn) [darolutamide]
- crossing of the blood-brain barrier [1]: do not cross the blood-brain barrier
- AR blockage peripherally [3]: 90%
- adverse effects [4]: does not cause major adverse effects

Compound: O=c1[nH]c2ccccc2n1CCN1CCN(c2cccc(C(F)(F)F)c2)CC1 [flibanserin]
- adverse effects [4]: low blood pressure

Compound: C[C@H]1CC(=O)C[C@@H]2CC[C@H]3[C@@H]4CC[C@H](O)[C@@]4(C)CC[C@@H]3[C@]21C [mesterolone]
- oral bioavailability [5]: 3%

Compound: C[C@]12CC[C@H]3[C@@H](CCC4=CC(=O)CC[C@@]43C)[C@@H]1CC[C@@H]2O [testosterone]
- time until libido boost (libido [6]): 3.5 h
- women reporting an increase in libido (libido [7]): 71%
